# Reference: patent US7371731B2, “Methods for using glucose pentasulfate for treating amyloid associated with type II diabetes” (priority 1998, dated 2008)
# “Also recorded” adds a separate entry of the source. Where two headings read alike, the source gives them in different places.
# Legend:
# [1] = target: T1, Aβ (1-40) (Homo sapiens, UniProt P05067); experiment: Thioflavin T fluorometry assay of Aβ (1-40) amyloid fibril formation; format: biochemical; conditions: for effect on Aβ (1-40) amyloid fibril formation (in words): 1.25 mM compound (1:50 M ratio), 1-week incubation
# T1 construct: 25 μM of Aβ (1-40)(Bachem Inc., Torrance, Calif., USA; Lot #WM365); purchased Bachem Inc., Torrance, Calif., USA
# T1 sequence (P05067 672-711 limits assumed): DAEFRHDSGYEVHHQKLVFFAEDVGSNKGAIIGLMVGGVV
# Source text: A previously described method of measuring amyloid fibril formation utilizing Thioflavin T fluorometry (H Naiki et al, Lab. Invest. 65:104-110, 1991; H Levine III, Protein Sci. 2:404-410, 1993; H Levine III, Amyloid: Int. J. Exp. Clin. Invest. 2:1-6, 1995; H Naiki and K. Nakakuki, Lab. Invest. 74:374-383, 1996) was employed initially to identify potential therapeutic compounds capable of inhibiting Aβ amyloid fibril formation. Using this sensitive assay, any decreases or increases in fluorescence were previously shown to correlate with a decrease or increase in the amount of amyloid fibrils (H Naiki et al, Lab. Invest. 65:104-110, 1991; H Levine III, Protein Sci. 2:404-410, 1993; H Levine III, Amyloid: Int. J. Exp. Clin. Invest. 2:1-6, 1995; H Naiki and K. Nakakuki, Lab. Invest. 74:374-383, 1996), allowing one to determine the identification and extent of potential inhibitors and/or enhancers of amyloid fibril formation.
# In an initial set of studies, the effects of various compounds on Aβ (1-40) fibrillogenesis was assessed. For these initial studies, 25 μM of Aβ (1-40)(Bachem Inc., Torrance, Calif., USA; Lot #WM365) was incubated in microcentrifuge tubes at 37° C. for 1 week (in triplicate), either alone, or in the presence of 1.25 mM (ie. 1:50 M ratio of Aβ:test compound) of various commercially available compounds (described below) in 150 mM Tris HCl, 10 mM NaCl, pH 7.0 (TBS). The compounds tested included glucose pentasulfate (PTI-48579, potassium salt; molecular weight=771), mannose pentasulfate (PTI-07499, potassium salt; molecular weight=771), methyl alpha-D-glucopyranoside 2,3,4,6-tetrasulfate (PTI-20049, potassium salt; molecular weight=667), methyl alpha-D-mannopyranoside 2,3,4,6-tetrasulfate (PTI-20814, potassium salt; molecular weight=667), sucrose heptasulfate (PTI-70936, potassium salt; molecular weight=1169), sucrose hexasulfate (PTI-70946, potassium salt; molecular weight=1052), and sucrose octasulfate (PTI-70011, potassium salt; molecular weight=1288).
# (§1) To assess the effects of each compound on Aβ (1-40) fibril formation, 50 μl aliquots were taken from each tube for analysis at 1 hr, 1 day, 3 days, and 1 week. For each determination described above, following each incubation period, 50 μl of Aβ+/−test compounds were added to 1.2 ml of 100 μM Thioflavin T (Sigma Chemical Co., St. Louis, Mo.) in 50 mM NaPO4 (pH 6.0). […] Fluorescence emission at 482 nm was measured on a Turner instrument-model 450 fluorometer at an excitation wavelength of 450 nm. For each determination, the fluorometer was calibrated by zeroing in the presence of the Thioflavin T reagent alone, and by seting the 50 ng/ml riboflavin (Sigma Chemical Co., St. Louis, Mo.) in the Thioflavin T reagent to 1800 fluorescence units. All fluorescence determinations were based on these references and any fluorescence given off by any of the compounds in the presence of the Thioflavin T reagent was always subtracted from all pertinent readings.
# For all fibrillogenesis studies utilizing Thioflavin T fluorometry, comparisons of Aβ in the presence or absence of test compounds were based on paired Student's t tests with data shown as mean+/−standard deviation. Significance was reported at the 95% (p<0.05), 99% (p<0.01) and 99.9% (p<0.001) confidence levels.
# In this study, the dose-dependent effects of glucose pentasulfate (PTI-48579) on Aβ (1-40) fibrillogenesis was determined using the Thioflavin T fluorometry assay. 25 μM of Aβ (1-40) (Bachem Inc., Torrance, Calif., USA; Lot #WM365) was incubated in microcentrifuge tubes at 37° C. for 1 week (in triplicate), either alone, or in the presence of 1.25 mM (ie. 1:50 M ratio of Aβ:PTI-48579), 0.41 mM, 0.138 mM and 0.046 mM of glucose pentasulfate in 150 mM Tris HCl, 10 mM NaCl, pH 7.0 (TBS). 50 μl aliquots were taken from each tube for analysis at 1 hr, 1 day, 3 days, and 1 week using Thioflavin T fluorometry as described in section 4.1. […]
# [2] = target: T2, pre-formed Aβ (1-40) amyloid fibrils (Homo sapiens, UniProt P05067); experiment: Thioflavin T fluorometry assay of dissolution of pre-formed Aβ (1-40) amyloid fibrils; format: biochemical; conditions: 25 μM fibrillized Aβ, 4 day incubation
# T2 construct: 25 μM of Aβ (1-40)(Bachem Inc., Torrance, Calif., USA; Lot #WM365); purchased Bachem Inc., Torrance, Calif., USA
# T2 sequence (P05067 672-711 limits assumed): as above
# Description: as §1
# For this study, 1 mg of Aβ (1-40) (Bachem Inc., Torrance, Calif., USA; Lot #WM365) was dissolved in 1.0 ml of double distilled water (1 mg/ml solution) and then incubated at 37° C. for 1 week. 25 μM of fibrillized Aβ was then incubated at 37° C. in the presence or absence of glucose pentasulfate at concentrations of 1.25 mM, 0.63 mM, 0.31 mM and 0.16 mM containing 150 mM Tris HCl, 10 mM NaCl, pH 7.0. Following a 4 day incubation, 50 μl aliquots were added to 1.2 ml of 100 μM Thioflavin T (Sigma Chemical Co., St. Louis, Mo.) in 50 mM NaPO4 (pH 6.0) for fluorometry readings as described in section 4.1.
# [3] = target: T3, Aβ-heparin binding (Homo sapiens, UniProt P05067); experiment: Solid phase binding immunoassay, binding of Aβ to substrate bound heparin; conditions: 5 μM Aβ 1-40
# T3 construct: 25 μM of Aβ (1-40)(Bachem Inc., Torrance, Calif., USA; Lot #WM365); purchased Bachem Inc., Torrance, Calif., USA
# T3 sequence (P05067 672-711 limits assumed): as above
# Description: (§2) 12 μg of heparin (molecular weight=5,000; obtained from the Sigma Chemical Company, St. Louis, Mo., USA) or heparan sulfate (molecular weight=˜70,000; obtained from Seikagaku America, Rockville, Md.) in 80 μl of Tris-buffered saline containing 100 mM Tris-HCl, 50 mM NaCl, 3 mM NaN3, pH 9.0 (TBS) was allowed to bind overnight at 4° C. to microtiter wells (Nunc plates, Maxisorb). The next day all of the microtiter wells were blocked for 2 hours by incubating with 300 μl of TBS with 0.05% Tween-20 (TTBS) plus 1% bovine serum albumin (BSA) (obtained from the Sigma Chemical Company, St. Louis, Mo., USA). Then, 100 μl of 5 μM Aβ 1-40 (Bachem Inc., Torrance, Calif., USA; Lot #WM365) in TTBS containing 0.05% albumin in the presence or absence of glucose pentasulfate at concentrations of 2.5 mM, 0.83 mM, 0.28 mM and 0.093 mM were placed in wells (in triplicate) containing substrate bound perlecan or blank, and allowed to bind overnight at 4° C. The next day, the wells were rinsed once with TTBS, and then probed for 45 minutes with 100 μl of anti-6E10 (Senetek, Maryland Heights, Mo.)(which recognizes Aβ 1-17) diluted 1:1000 with TTBS. This was followed by rinsing once with TTBS and probed for 45 minutes with biotinylated goat-anti mouse (diluted 1:1000) containing streptavidin-peroxidase or anti-biotin-peroxidase (1:500 dilution of a 2 μg/ml solution) (Sigma Chemical Co., St. Louis, Mo.) in TTBS containing 0.1% BSA. The wells were then rinsed 3 times with TTBS and 100 μl of a substrate solution (OPD-Sigma Fast from Sigma Chemical Co., St. Louis, Mo.) was added to each well and allowed to develop for 5 minutes or until a significant color change was observed. The reaction was stopped with 50 μl of 4N H2SO4 and read on a Model 450 microplate reader (Biorad, Hercules, Calif., USA) at 490 nm.
# [4] = target: T4, Aβ-heparan sulfate binding (Homo sapiens, UniProt P05067); experiment: Solid phase binding immunoassay, Aβ-heparan sulfate binding; conditions: 2.5 to 0.093 mM; data not shown
# T4 construct: 25 μM of Aβ (1-40)(Bachem Inc., Torrance, Calif., USA; Lot #WM365); purchased Bachem Inc., Torrance, Calif., USA
# T4 sequence (P05067 672-711 limits assumed): as above
# Description: as §2, with “This was followed by rinsing once with TTBS and probed for 45 minutes with biotinylated goat-anti mouse (diluted 1:1000) containing streptavidin-peroxidase or anti-biotin-peroxidase (1:500 dilution of a 2 μg/ml solution) (Sigma Chemical Co., St. Louis, Mo.) in TTBS containing 0.1% BSA. The wells were then rinsed 3 times with TTBS and 100 μl of a substrate solution (OPD-Sigma Fast from Sigma Chemical Co., St. Louis, Mo.) was added to each well and allowed to develop for 5 minutes or until a significant color change was observed.” left out
# [5] = target: T5, human islet amyloid polypeptide (Homo sapiens, UniProt P10997); experiment: Thioflavin T fluorometry assay of islet amyloid polypeptide (amylin) fibrils; format: biochemical; conditions: 1.25 mM
# T5 construct: consists of a 37 amino acid protein known as islet amyloid polypeptide or amylin; purchased Bachem Inc, Torrance, Calif., USA
# T5 sequence (P10997 34-70 limits assumed): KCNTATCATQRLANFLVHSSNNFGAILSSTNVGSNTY
# Description: as §1
# For this study, the method of Thioflavin T fluorometry as described above was used. Briefly, 25 μM of human islet amyloid polypeptide (Bachem Inc, Torrance, Calif., USA, Lot # WL934) was incubated in microcentrifuge tubes at 37° C. for 1 week (in triplicate), either alone, or in the presence of 1.25 mM glucose pentasulfate (PTI-48579; molecular weight=771) or mannose pentasulfate (PTI-07499; molecular weight=771). To assess the effects of glucose pentasulfate and mannose pentasulfate on islet amyloid polypeptide fibrillogenesis, 50 μl aliquots were taken from each tube for analysis at 1 hr, 1 day, 2 days, 3 days, 4 days and 1 week. For each determination described above, following each incubation period, 50 μl aliquots of islet amyloid polypeptide+/−glucose pentasulfate or mannose pentasulfate were added to 1.2 ml of 100 μM Thioflavin T (Sigma Chemical Co., St. Louis, Mo.) in 50 mM NaPO4 (pH 6.0) for fluorometry readings as described in section 4.1.
compound,measurement,setting,value
"O=C[C@H](OS(=O)(=O)O)[C@@H](OS(=O)(=O)O)[C@H](OS(=O)(=O)O)[C@@H](COS(=O)(=O)O)OS(=O)(=O)O [PTI-48579, glucose pentasulfate]",effect on Aβ (1-40) amyloid fibril formation (in words),"[1]; Example 1, 25 μM Aβ (1-40)",inhibited
same,inhibition at 1250 µM,"[1]; Example 1, 25 μM Aβ (1-40), 1.25 mM compound, 37° C., 1 week, read-out: inhibition of Aβ (1-40) amyloid fibril formation",80%
same,inhibition of Aβ amyloid fibril formation (in words),"[1]; Example 1, 1.25 mM compound, 3 days",Significant inhibition
same,inhibition of Aβ fibril formation (in words),"[1]; Example 2, 0.046 mM, 3 days",did not significantly inhibit
same,inhibition of Aβ fibril formation (in words),"[1]; Example 2, 0.138 mM, 3 days",did not significantly inhibit
same,inhibition at 410 µM,"[1]; Example 2, 0.41 mM, 1 week, read-out: inhibition of Aβ (1-40) fibrillogenesis",47%
same,inhibition of Aβ fibril formation (in words),"[1]; Example 2, 0.41 mM, 3 days",did not significantly inhibit
same,inhibition at 1250 µM,"[1]; Example 2, 1.25 mM, 1 week, read-out: inhibition of Aβ (1-40) fibrillogenesis",72%
same,inhibition at 1250 µM,"[1]; Example 2, 1.25 mM, 3 days, read-out: inhibition of Aβ fibril formation",39%
same,dissolution of pre-formed Aβ amyloid fibrils,[2]; 0.16 mM,23%
same,dissolution of pre-formed Aβ amyloid fibrils,[2]; 0.31 mM,31%
same,dissolution of pre-formed Aβ amyloid fibrils,[2]; 0.63 mM,47%
same,dissolution of pre-formed Aβ amyloid fibrils,[2]; 1.25 mM,60%
same,inhibition at 93 µM,[3]; 0.093 mM,45%
same,inhibition at 280 µM,[3]; 0.28 mM,74%
same,inhibition at 830 µM,[3]; 0.83 mM,92%
same,inhibition at 2500 µM,[3]; 2.5 mM,78%
same,inhibition of Aβ-heparan sulfate binding (in words),[4],significant dose-dependent inhibition
same,dissolution of pre-formed amylin fibrils,"[5]; 25 μM islet amyloid polypeptide, 1 week",57%
same,effect on islet amyloid polypeptide fibrillogenesis at earlier time points (in words),"[5]; 1 hour, 1 day and 2 days",initial increase
"CO[C@H]1O[C@H](COS(=O)(=O)O)[C@@H](OS(=O)(=O)O)[C@H](OS(=O)(=O)O)[C@@H]1OS(=O)(=O)O [methyl alpha-D-mannopyranoside 2,3,4,6-tetrasulfate, reference compound]",effect on Aβ (1-40) amyloid fibril formation (in words),"[1]; Example 1, 25 μM Aβ (1-40)",ineffective inhibitors
sucrose heptasulfate [reference compound],effect on Aβ (1-40) amyloid fibril formation (in words),"[1]; Example 1, 25 μM Aβ (1-40)",ineffective inhibitors
"CO[C@H]1O[C@H](COS(=O)(=O)O)[C@@H](OS(=O)(=O)O)[C@H](OS(=O)(=O)O)[C@H]1OS(=O)(=O)O [methyl alpha-D-glucopyranoside 2,3,4,6-tetrasulfate, reference compound]",effect on Aβ (1-40) amyloid fibril formation (in words),"[1]; Example 1, 25 μM Aβ (1-40)",ineffective inhibitors
sucrose hexasulfate [reference compound],effect on Aβ (1-40) amyloid fibril formation (in words),"[1]; Example 1, 25 μM Aβ (1-40)",ineffective inhibitors
"O=S(=O)(O)OC[C@H]1O[C@@](COS(=O)(=O)O)(O[C@H]2O[C@H](COS(=O)(=O)O)[C@@H](OS(=O)(=O)O)[C@H](OS(=O)(=O)O)[C@H]2OS(=O)(=O)O)[C@@H](OS(=O)(=O)O)[C@@H]1OS(=O)(=O)O [sucrose octasulfate, reference compound]",effect on Aβ (1-40) amyloid fibril formation (in words),"[1]; Example 1, 25 μM Aβ (1-40)",ineffective inhibitors
"O=C[C@@H](OS(=O)(=O)O)[C@@H](OS(=O)(=O)O)[C@H](OS(=O)(=O)O)[C@@H](COS(=O)(=O)O)OS(=O)(=O)O [mannose pentasulfate, reference compound]",effect on Aβ (1-40) amyloid fibril formation (in words),"[1]; Example 1, 25 μM Aβ (1-40)",ineffective inhibitors; also recorded: did not inhibit
same,effect on islet amyloid polypeptide fibrillogenesis (in words),[5]; all time points (1 hr to 1 week),significant increase
